In patent publication US20260265298A1, “PEPTIDE SUBSTRATES AND INHIBITORS OF CATHEPSIN B” (The Regents of the University of California, priority 2023, published 2026):
[ ]: non-standard residue; d: D form. The star is where a group is joined. AMC = Cc1cc(=O)oc2cc(N*)ccc12; Nle = CCCC[C@H](N)C(=O)O; Cbz = O=C(OCc1ccccc1)*

Columns and labels:
Assay type in all cases: biochemical
human cathepsin B [1] = molecular target: T1, human cathepsin B (Homo sapiens, UniProt P07858); assay: Cathepsin B activity with fluorogenic Z-peptide-AMC substrates (specific activity, pH profile); conditions: for cleavage by cathepsin B: pH 4.6 and 7.2, 40 μM substrate ('Table 1' comparison)
T1 construct: purchased R & D Systems 953-CY-010
Protocol: (§1) Cathepsin B activity with Z-Arg-Arg-AMC and Z-Phe-Arg-AMC substrates at pH 4.6 and 7.2. Cathepsin B (0.04 ng/μL) activity was assessed with Z-Arg-Arg-AMC and Z-Phe-Arg-AMC substrates (40 μM final concentration) (Table 1) in 40 mM citrate phosphate buffer pH 4.6 or Tris-HCl pH 7.2 in 1 mM EDTA, 100 mM NaCl, and 5 mM DTT with incubation at room temperature (25° C.) in triplicate and AMC fluorescence readings per second (RFU/s) (excitation 360 nm, emission 460 nm) were recorded over a period of 30 min by BioTek Synergy HTX plate reader (Software Version 3.08.01). Enzyme initial velocity was calculated using the highest slope recorded for 10 consecutive fluorescent readings within the initial 30 min. The mean and standard deviation (SD) were determined from triplicates. RFU/s were converted to pmol/min/μg (specific activity) using AMC standard curves. All data were plotted, calculated, and analyzed using GraphPad Prism (Version 9.4.1).
Analysis of pH-dependent cathepsin B activity with fluorogenic substrates designed from MSPMS data. For comparison of cathepsin B activity at pH 4.6, pH 5.5, and pH 7.2 with multiple fluorogenic substrates, cathepsin B (0.04 ng/μL) was incubated with 40 μM substrates consisting of Z-Lys-Arg-AMC. Z-Phe-Arg-AMC. Z-Arg-Arg-AMC. Z-Gly-Lys-Arg-AMC, Z-Val-Lys-Arg-AMC, Z-Tyr-Lys-Arg-AMC. Z-Phe-Lys-Arg-AMC, Z-Trp-Lys-Arg-AMC, Z-Leu-Lys-Arg-AMC, Z-Ala-Lys-Arg-AMC, Z-Nle-Arg-Arg-AMC, and Z-Nle-Lys-Arg-AMC. AMC product formation (RFU/s) was monitored in 40 mM citrate phosphate, pH 4.6 and pH 7.2, 1 mM EDTA, 100 mM NaCl, and 5 mM DTT was determined from the average of RFU/s triplicates at each pH condition.
For analysis of pH-dependent activity cathepsin B (0.04 ng/μL), proteolytic activity was monitored over the pH range of pH 2.2-9.0 in 40 mM citrate phosphate (pH 2.2 to pH 6.6) and 40 mM Tris-HCl (pH 7.0 to 9.0), 1 mM EDTA, 100 mM NaCl, and 5 mM DTT, with preincubation in each pH buffer for 10 min prior to initiating the assay by addition of Z-Nle-Lys-Arg-AMC, Z-Arg-Arg-AMC, or Z-Phe-Arg-AMC to a final concentration of 40 μM to generate the pH curve data.

human cathepsin B [2] = molecular target: T1, human cathepsin B; assay: as above; conditions: pH 4.6 and pH 7.2; substrates at 4 μM (FIG. 3)
cathepsin L = molecular target: T2, cathepsin L (Homo sapiens, UniProt P07711); assay: Substrate selectivity: cleavage of AMC substrates by cathepsin L
T2 construct: active cathepsin L (R & D Systems, #952-CY-010); purchased R & D Systems 952-CY-010
Protocol: [Worded in the source for another target; used here, by the source, with some conditions changed.] as §1
(§2) For evaluation of cathepsin B and cysteine cathepsins for substrate selectivity each cathepsin was incubated with 4 μM substrates consisting of Z-Phe-Arg-AMC. Z-Arg-Arg-AMC, and Z-Nle-Lys-Arg-AMC, activity was monitored in 40 mM citrate phosphate (pH 4.6, pH 5.5 and pH 7.2), 1 mM EDTA, 100 mM NaCl, and 5 mM DTT for cathepsin B (0.04 ng/μL), cathepsin K (0.03 ng/μL), cathepsin L (0.03 ng/μL), cathepsin S (0.14 ng/μL), cathepsin V (0.04 ng/μL), and cathepsin X (0.20 ng ng/μL). Since cathepsin X cannot cleave any of the AMC substrates, MCARPPGFSAFK(Dnp)-OH (R & D Systems #ES005) was used to verify that cathepsin X was active.

cathepsin K = molecular target: T3, cathepsin K (Homo sapiens, UniProt P43235); assay: Substrate selectivity: cleavage of AMC substrates by cathepsin K
T3 construct: active cathepsin K (Abcam, #ab157067); purchased Abcam ab157067
T3 sequence (P43235 115-329): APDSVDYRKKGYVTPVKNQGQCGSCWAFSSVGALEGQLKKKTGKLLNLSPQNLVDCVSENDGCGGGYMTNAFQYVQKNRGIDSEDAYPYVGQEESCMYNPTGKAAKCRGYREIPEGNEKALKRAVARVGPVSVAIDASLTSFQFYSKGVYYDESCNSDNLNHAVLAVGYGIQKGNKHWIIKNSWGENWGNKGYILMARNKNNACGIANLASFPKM

cathepsin S = molecular target: T4, cathepsin S (Homo sapiens, UniProt P25774); assay: Substrate selectivity: cleavage of AMC substrates by cathepsin S
T4 construct: purchased R & D Systems 1183-CY-010
Protocol: as §1
as §2, with “For evaluation of cathepsin B and cysteine cathepsins for substrate selectivity each cathepsin was incubated with 4 μM substrates consisting of Z-Phe-Arg-AMC.” left out

cathepsin V = molecular target: T5, cathepsin V (Homo sapiens, UniProt O60911); assay: Substrate selectivity: cleavage of AMC substrates by cathepsin V
T5 construct: purchased R & D Systems 1080-CY-010
Protocol: as §1
as §2, with “For evaluation of cathepsin B and cysteine cathepsins for substrate selectivity each cathepsin was incubated with 4 μM substrates consisting of Z-Phe-Arg-AMC.” left out

mouse cathepsin B = molecular target: T6, mouse cathepsin B (Mus musculus, UniProt P10605); assay: Mouse cathepsin B specific activity with AMC substrates; conditions: pH 4.6, 5.5 and 7.2; 40 μM substrate
T6 construct: purchased R & D Systems 965-CY-010
Protocol: FIGS. 11a-11b. […] (FIG. 11a) pH-dependence of mouse cathepsin B activity with Z-Nle-Lys-Arg-AMC compared to Z-Arg-Arg-AMC and Z-Phe-Arg-AMC substrates. Cathepsin B specific activity with the three different substrates (40 μM) were assessed at pH 4.6, 5.5, and 7.2. Data points are shown as the mean+SD (n=3).

[3] = molecular target: T7, cathepsin B in homogenates of human neuroblastoma SHSY-5Y and SK-N-MC cells (Homo sapiens, UniProt P07858); assay: Cathepsin B (CA-074-sensitive) activity in human neuroblastoma cell homogenates; conditions: for monitoring of cathepsin B (CA-074-sensitive) activity in cell homogenate: pH 4.6, 5.5, 7.2; for cathepsin B activity detected in cell homogenate: pH 4.6
T7 construct: homogenates of human neuroblastoma cell lines, SHSY-5Y and SK-N-MC, and mouse microglia cell line, BV2; endogenous in cells; host or cells: SH-SY5Y and SK-N-MC human neuroblastoma cell homogenates
Protocol: (§3) Cathepsin B activity in human neuroblastoma and mouse microglia. Characterization of Z-Nle-Lys-Arg-AMC substrate in proteolytic activity assays for specific cathepsin B activity of cell homogenates (prepared in 0.32 M sucrose) was conducted at 40 mM citrate phosphate pH 4.6, 5.5, and 7.2, 5 mM DTT, 1 mM EDTA, 100 mM NaCl, 1.2% DMSO, and homogenates of human neuroblastoma cell lines, SHSY-5Y and SK-N-MC, and mouse microglia cell line, BV2. A concentration of 6 μM Z-Nle-Lys-Arg-AMC, Z-Arg-Arg-AMC, and Z-Phe-Arg-AMC substrates were used in the proteolytic activity assays. Cell homogenates were diluted 1:10 prior to addition to assays. […] Assays were performed in 96-well plates at room temperature (25° C.) in a total volume of 100 μl with triplicates. Cell homogenates were incubated with CA-074 or inhibitor controls at RT for 30 minutes in the absence of substrate, followed by addition of substrate and incubation at 37° C. Fluorescence was quantified at 15, 30, and 60 minutes after substrate was added, by a Biotek Synergy HTX microplate reader with excitation at 360 nm, and emission at 460 nm, gain 50, top optics and read height at 1 mm. Prism GraphPad software was used to analyze data.

[4] = molecular target: T8, cathepsin B in homogenates of mouse microglia BV2 cells (Mus musculus, UniProt P10605); assay: Cathepsin B (CA-074-sensitive) activity in mouse microglia cell homogenates; conditions: for monitoring of cathepsin B (CA-074-sensitive) activity in cell homogenate: pH 4.6, 5.5, 7.2; for cathepsin B activity detected in cell homogenate: pH 4.6
T8 construct: homogenates of human neuroblastoma cell lines, SHSY-5Y and SK-N-MC, and mouse microglia cell line, BV2; endogenous in cells; host or cells: BV2 mouse microglia cells (homogenate; cytosol fraction in the low nutrient stress assay)
Protocol: as §3

[5] = pH 4.6, 5.5 and 7.2 (FIGS. 5a-5c)
[6] = pH 4.6 and 7.2, 40 μM substrate ('Table 1' comparison)
[7] = CA-074 1 μM, 30 min pre-incubation

T2 sequence (P07711 114-333): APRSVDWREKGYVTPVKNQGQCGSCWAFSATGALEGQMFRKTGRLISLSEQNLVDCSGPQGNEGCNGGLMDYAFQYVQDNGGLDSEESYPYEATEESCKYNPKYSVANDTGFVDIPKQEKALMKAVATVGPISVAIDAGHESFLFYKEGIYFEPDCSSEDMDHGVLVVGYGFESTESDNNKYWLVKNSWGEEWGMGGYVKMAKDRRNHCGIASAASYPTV
T4 sequence (P25774 115-331): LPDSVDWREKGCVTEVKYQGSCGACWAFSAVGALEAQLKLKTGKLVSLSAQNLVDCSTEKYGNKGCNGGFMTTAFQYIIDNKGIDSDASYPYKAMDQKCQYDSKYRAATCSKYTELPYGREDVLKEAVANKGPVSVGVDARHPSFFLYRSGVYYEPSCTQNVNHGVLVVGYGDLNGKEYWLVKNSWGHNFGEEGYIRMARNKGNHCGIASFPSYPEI
T5 sequence (O60911 114-334): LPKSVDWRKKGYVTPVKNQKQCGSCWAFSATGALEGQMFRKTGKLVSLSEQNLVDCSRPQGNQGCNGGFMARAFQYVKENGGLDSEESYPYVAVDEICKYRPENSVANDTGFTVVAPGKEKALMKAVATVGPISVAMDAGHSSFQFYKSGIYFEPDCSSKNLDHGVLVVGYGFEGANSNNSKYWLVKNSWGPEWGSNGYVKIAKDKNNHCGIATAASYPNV
T8 sequence (P10605 80-333): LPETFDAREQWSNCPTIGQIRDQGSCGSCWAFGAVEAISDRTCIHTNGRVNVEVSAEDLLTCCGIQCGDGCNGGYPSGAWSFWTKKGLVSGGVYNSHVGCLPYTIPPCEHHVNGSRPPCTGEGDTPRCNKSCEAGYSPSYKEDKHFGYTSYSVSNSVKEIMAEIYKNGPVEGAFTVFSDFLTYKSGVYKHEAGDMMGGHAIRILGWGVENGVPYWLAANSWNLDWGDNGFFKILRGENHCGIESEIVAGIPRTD
T6 sequence (P10605 80-333 limits assumed): as the sequence (P10605 80-333) above

Molecule: Cbz-[Nle]-Arg-Arg-{AMC}
- less activity compared to Z-Nle-Lys-Arg-AMC (human cathepsin B [1]; pH 4.6): about 30%
- less activity compared to Z-Nle-Lys-Arg-AMC (human cathepsin B [1]; pH 7.2): ~50%

Molecule: Cbz-Lys-Arg-{AMC}
- cathepsin B specific activity compared among substrates (human cathepsin B [2]): lower activity than Z-Nle-Lys-Arg-AMC

Molecule: Cbz-Phe-Arg-{AMC}
- cleavage by cathepsin B (human cathepsin B [1]): cleaved by cathepsin B and other cysteine cathepsins L, K, S, and V
- cleavage by cathepsin L (cathepsin L; [5]): cleaved by cathepsin L with greater activity than that for cathepsin B
- cleavage by cathepsin L (cathepsin L; [6]): cleaved by cathepsin B and other cysteine cathepsins L, K, S, and V
- cleavage by cathepsin K (cathepsin K; [5]): also cleaved by cathepsins K and V
- cleavage by cathepsin K (cathepsin K; [6]): cleaved by cathepsin B and other cysteine cathepsins L, K, S, and V
- cleavage by cathepsin S (cathepsin S; [6]): cleaved by cathepsin B and other cysteine cathepsins L, K, S, and V
- cleavage by cathepsin V (cathepsin V; [5]): also cleaved by cathepsins K and V
- cleavage by cathepsin V (cathepsin V; [6]): cleaved by cathepsin B and other cysteine cathepsins L, K, S, and V
- mouse cathepsin B specific activity (mouse cathepsin B): moderate specific activity
- monitoring of cathepsin B (CA-074-sensitive) activity in cell homogenate [3]: detected cathepsin B as well as other cysteine cathepsin activity
- monitoring of cathepsin B (CA-074-sensitive) activity in cell homogenate [4]: detected cathepsin B as well as other cysteine cathepsin activity

Molecule: CCCNC(=O)[C@H]1O[C@@H]1C(=O)N[C@H](C(=O)N1CCC[C@H]1C(=O)O)[C@@H](C)CC [CA-074]
- effect on cathepsin B activity in cell homogenate [3, 7]: inhibition
- effect on cathepsin B activity in cell homogenate [4, 7]: inhibition

Molecule: Cbz-Arg-Arg-{AMC}
- cleavage by cathepsin B at acidic pH (human cathepsin B [1]; pH 4.6, 40 μM substrate): poor cleavage activity
- cleavage by cathepsin B (human cathepsin B [1]): cleaved by cathepsin B and other cysteine cathepsins L, K, S, and V
- specific activity at acidic pH as fraction of specific activity at neutral pH (human cathepsin B [1]; pH 4.6 vs pH 7.2): one-third
- cleavage by cathepsin B at neutral pH (human cathepsin B [1]; pH 7.2, 40 μM substrate): readily cleaved
- cleavage by cathepsin L (cathepsin L; [5]): cleaved by cathepsins L and V
- cleavage by cathepsin L (cathepsin L; [6]): cleaved by cathepsin B and other cysteine cathepsins L, K, S, and V
- cleavage by cathepsin K (cathepsin K; [6]): cleaved by cathepsin B and other cysteine cathepsins L, K, S, and V
- cleavage by cathepsin S (cathepsin S; [6]): cleaved by cathepsin B and other cysteine cathepsins L, K, S, and V
- cleavage by cathepsin V (cathepsin V; [5]): cleaved by cathepsins L and V
- cleavage by cathepsin V (cathepsin V; [6]): cleaved by cathepsin B and other cysteine cathepsins L, K, S, and V
- mouse cathepsin B specific activity (mouse cathepsin B): low
- cathepsin B activity detected in cell homogenate [3]: none or little activity
- monitoring of cathepsin B (CA-074-sensitive) activity in cell homogenate [3]: only low cathepsin B activity
- cathepsin B activity detected in cell homogenate [4]: none or little activity
- monitoring of cathepsin B (CA-074-sensitive) activity in cell homogenate [4]: only low cathepsin B activity

Molecule: Cbz-Leu-Lys-Arg-{AMC}
- cathepsin B specific activity compared among substrates (human cathepsin B [2]): less activity than Z-Nle-Lys-Arg-AMC

Molecule: Cbz-[Nle]-Lys-Arg-{AMC}
- pH of maximal activity (human cathepsin B [1]; pH profile pH 2 to 9): 5.5-6.5 pH
- cleavage by cathepsin L (cathepsin L; [5]): not cathepsins L. K. S, and V activities
- cleavage by cathepsin K (cathepsin K; [5]): not cathepsins L. K. S, and V activities
- cleavage by cathepsin S (cathepsin S; [5]): not cathepsins L. K. S, and V activities
- cleavage by cathepsin V (cathepsin V; [5]): not cathepsins L. K. S, and V activities
- mouse cathepsin B specific activity (mouse cathepsin B): highest specific activity
- cathepsin B activity detected in cell homogenate [3]: robust cathepsin B activity
- monitoring of cathepsin B (CA-074-sensitive) activity in cell homogenate [3]: highly sensitive for monitoring cathepsin B activity
- cathepsin B activity detected in cell homogenate [4]: robust cathepsin B activity
- monitoring of cathepsin B (CA-074-sensitive) activity in cell homogenate [4]: highly sensitive for monitoring cathepsin B activity
- cathepsin B specific activity compared among substrates (human cathepsin B [2]): higher than all other substrates at both pHs
